Results from ChEMBL document CHEMBL1130473, “Synthesis and in vitro antibacterial activities of novel conformationally restricted hygromycin a analogues” (1997).
≈ marks a conversion by molar mass, not a printed value.

Tests used:
Format in all cases: functional
Pasteurella multocida = assay: Compound was tested for minimum inhibitory concentration against Pasteurella multocida
[1] = system: Brachyspira hyodysenteriae; assay: Compound was tested for minimum inhibitory concentration against S. hyodysenteriae; 6.25-12.5
[2] = system: Brachyspira hyodysenteriae; assay: Compound was tested for minimum inhibitory concentration against Serpulina hyodysenteriae

SMILES | MIC (Pasteurella multocida) | MIC [1] | MIC [2]
CC/C=C1/COc2cc(/C=C(\C)C(=O)N[C@@H]3[C@H](O)[C@@H](O)[C@H]4OCO[C@H]4[C@@H]3O)ccc21 | 50 µg/mL (≈ 120 µM) |  | 
CCCc1coc2cc(/C=C(\C)C(=O)N[C@@H]3[C@H](O)[C@@H](O)[C@H]4OCO[C@H]4[C@@H]3O)ccc12 | 50 µg/mL (≈ 120 µM) |  | 
C=CCOc1cc2c(cc1O)C=C(C(=O)N[C@@H]1[C@H](O)[C@@H](O)[C@H]3OCO[C@H]3[C@@H]1O)CC2 | 12.5 µg/mL (≈ 29.8 µM) | 6.25 µg/mL (≈ 14.9 µM) | 
C=CCOc1cc2ccc(C(=O)N[C@@H]3[C@H](O)[C@@H](O)[C@H]4OCO[C@H]4[C@@H]3O)cc2cc1O | 50 µg/mL (≈ 120 µM) |  | 50 µg/mL (≈ 120 µM)
CC/C=C1\COc2cc(/C=C(\C)C(=O)N[C@@H]3[C@H](O)[C@@H](O)[C@H]4OCO[C@H]4[C@@H]3O)ccc21 | 50 µg/mL (≈ 120 µM) |  | 
C=CCOc1ccc2c(c1O)CCC(C(=O)N[C@@H]1[C@H](O)[C@@H](O)[C@H]3OCO[C@H]3[C@@H]1O)=C2 | > 200 µg/mL |  | > 200 µg/mL
C=CCOc1cc2c(cc1O)C=C(C(=O)N[C@@H]1[C@H](O)[C@@H](O)[C@H]3OCO[C@H]3[C@@H]1O)C2 | > 200 µg/mL |  | > 200 µg/mL
C=CCOc1cc2c(cc1O)C=C(C(=O)N[C@@H]1[C@H](O)[C@@H](O)[C@H]3OCO[C@H]3[C@@H]1O)CCC2 | 25 µg/mL (≈ 57.7 µM) |  | 25 µg/mL (≈ 57.7 µM)
CCCC1COc2cc(/C=C(\C)C(=O)N[C@@H]3[C@H](O)[C@@H](O)[C@H]4OCO[C@H]4[C@@H]3O)ccc21 (some centres undefined) | 6.25 µg/mL (≈ 14.9 µM) |  | 
